Assay [1] deals with T1, GABA-A receptor; alpha-5/beta-3/gamma-2 (Homo sapiens, UniProt P18507+P28472+P31644).
T1 sequence (P18507 whole entry): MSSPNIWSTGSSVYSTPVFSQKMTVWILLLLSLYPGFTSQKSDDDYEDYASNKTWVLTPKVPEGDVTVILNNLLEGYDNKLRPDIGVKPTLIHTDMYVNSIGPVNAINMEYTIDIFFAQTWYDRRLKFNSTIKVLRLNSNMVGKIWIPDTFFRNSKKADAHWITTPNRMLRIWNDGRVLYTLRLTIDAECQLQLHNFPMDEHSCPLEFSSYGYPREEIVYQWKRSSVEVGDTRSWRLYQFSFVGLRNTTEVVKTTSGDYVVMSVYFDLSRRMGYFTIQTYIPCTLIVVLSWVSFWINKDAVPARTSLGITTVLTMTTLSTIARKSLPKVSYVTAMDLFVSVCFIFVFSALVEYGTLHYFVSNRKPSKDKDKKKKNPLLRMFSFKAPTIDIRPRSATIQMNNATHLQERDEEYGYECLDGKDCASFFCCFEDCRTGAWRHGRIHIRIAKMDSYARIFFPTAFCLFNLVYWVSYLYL
T1 sequence (P28472 whole entry): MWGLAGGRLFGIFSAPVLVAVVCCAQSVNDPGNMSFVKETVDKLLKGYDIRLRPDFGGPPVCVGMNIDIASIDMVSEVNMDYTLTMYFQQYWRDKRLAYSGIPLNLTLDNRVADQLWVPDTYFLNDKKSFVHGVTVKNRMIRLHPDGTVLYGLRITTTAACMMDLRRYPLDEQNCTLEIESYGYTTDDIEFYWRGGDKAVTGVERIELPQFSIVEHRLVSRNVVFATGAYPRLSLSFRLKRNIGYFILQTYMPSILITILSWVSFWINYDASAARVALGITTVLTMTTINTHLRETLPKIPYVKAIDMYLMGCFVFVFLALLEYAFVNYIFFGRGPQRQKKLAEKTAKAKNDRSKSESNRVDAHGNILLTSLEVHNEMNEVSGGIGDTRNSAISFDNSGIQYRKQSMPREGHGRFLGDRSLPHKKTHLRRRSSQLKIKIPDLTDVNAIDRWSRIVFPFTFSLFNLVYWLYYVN
T1 sequence (P31644 whole entry): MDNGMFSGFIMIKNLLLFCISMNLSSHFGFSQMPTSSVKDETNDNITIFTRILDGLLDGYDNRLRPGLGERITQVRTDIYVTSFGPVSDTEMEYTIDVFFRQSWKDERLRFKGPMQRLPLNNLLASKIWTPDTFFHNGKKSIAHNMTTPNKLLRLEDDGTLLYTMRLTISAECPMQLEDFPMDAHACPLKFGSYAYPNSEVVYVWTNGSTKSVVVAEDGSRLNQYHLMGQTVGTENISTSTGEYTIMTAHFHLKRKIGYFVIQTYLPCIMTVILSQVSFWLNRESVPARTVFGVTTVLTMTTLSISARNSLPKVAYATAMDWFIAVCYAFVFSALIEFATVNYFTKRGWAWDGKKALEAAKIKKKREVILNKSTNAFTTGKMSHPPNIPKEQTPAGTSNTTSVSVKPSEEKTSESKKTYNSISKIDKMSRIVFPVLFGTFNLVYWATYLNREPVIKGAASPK
In words: Inverse agonist activity at GABAA alpha5beta3gamma2 in Homo sapiens (human) L(tk-) cells by patch clamp assay. Background: Patch clamp records ionic current or voltage across a cell membrane.

Assay [2] addresses GABA-A receptor; alpha-2/beta-3/gamma-2 (Homo sapiens) (UniProt P18507+P28472+P47869). The assay is described as follows: Antagonist activity at GABAA alpha2beta3gamma2 in Homo sapiens (human) L(tk-) cells by patch clamp assay relative to GABA.
For assay [3], the system named is Rattus norvegicus. The assay is described as follows: Cognitive enhancing effect in Rattus norvegicus (rat) at 0.3 mg/kg, ip by water maze test. In kind it is functional, organism-based. Set-up: dose 0.3 mg/kg.
The species entered for assay [4] is Homo sapiens. In words: Selectivity ratio of Ki for GABAA alpha2beta3gamma2 (unknown origin) to Ki for GABAA alpha5beta3gamma2 (unknown origin).
Assay [5] is filed under the species Homo sapiens. In words: Selectivity ratio of Ki for GABAA alpha3beta3gamma3 (unknown origin) to Ki for GABAA alpha5beta3gamma2 (unknown origin).
Assay [6] deals with Rattus norvegicus. The assay is described as follows: In vivo GABAA alpha5beta3gamma2 receptor occupancy in Rattus norvegicus (rat) assessed as inhibition of [3H]L-655,708 binding at 0.3 mg/kg, ip. In kind it is functional. Particulars: route intraperitoneal.
Assay [7] has as its target GABA-A receptor; alpha-5/beta-3/gamma-2 (Homo sapiens) (UniProt P18507+P28472+P31644). The assay is described as follows: Modulation of GABAA alpha5beta3gamma2 in Homo sapiens (human) L(tk-) cells patch clamp assay relative to GABA.
Assay [8] is filed under the species Homo sapiens. In words: Selectivity ratio of Ki for GABA-Aalpha1beta3gamma2 (unknown origin) to Ki for GABAA alpha5beta3gamma2 (unknown origin).
Assay [9] deals with Gamma-aminobutyric acid receptor subunit alpha-3/ beta-3/gamma-3 (Homo sapiens) (UniProt P28472+Q99928+P34903). The assay is described as follows: Antagonist activity at GABAA alpha3beta3gamma3 in Homo sapiens (human) L(tk-) cells relative to GABA.
The target in assay [10] is T2, Gamma-aminobutyric acid receptor subunit alpha-3/ beta-3/gamma-3 (Homo sapiens, UniProt P28472+P34903+Q99928).
T2 sequence (P28472 whole entry): T1 sequence (P28472 whole entry)
T2 sequence (Q99928 whole entry): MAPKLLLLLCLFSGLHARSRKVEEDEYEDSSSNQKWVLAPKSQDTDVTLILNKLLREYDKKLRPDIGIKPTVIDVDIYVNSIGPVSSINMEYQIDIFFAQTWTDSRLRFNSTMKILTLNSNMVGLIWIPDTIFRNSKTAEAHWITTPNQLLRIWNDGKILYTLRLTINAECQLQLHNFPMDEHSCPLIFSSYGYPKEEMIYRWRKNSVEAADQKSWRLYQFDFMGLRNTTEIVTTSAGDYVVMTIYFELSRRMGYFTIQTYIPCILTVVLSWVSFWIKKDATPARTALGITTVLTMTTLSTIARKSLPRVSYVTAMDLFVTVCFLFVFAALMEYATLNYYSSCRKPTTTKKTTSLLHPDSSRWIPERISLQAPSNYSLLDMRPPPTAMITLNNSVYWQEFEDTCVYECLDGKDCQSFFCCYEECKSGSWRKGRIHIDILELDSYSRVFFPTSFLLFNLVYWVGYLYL
T2 sequence (P34903 whole entry): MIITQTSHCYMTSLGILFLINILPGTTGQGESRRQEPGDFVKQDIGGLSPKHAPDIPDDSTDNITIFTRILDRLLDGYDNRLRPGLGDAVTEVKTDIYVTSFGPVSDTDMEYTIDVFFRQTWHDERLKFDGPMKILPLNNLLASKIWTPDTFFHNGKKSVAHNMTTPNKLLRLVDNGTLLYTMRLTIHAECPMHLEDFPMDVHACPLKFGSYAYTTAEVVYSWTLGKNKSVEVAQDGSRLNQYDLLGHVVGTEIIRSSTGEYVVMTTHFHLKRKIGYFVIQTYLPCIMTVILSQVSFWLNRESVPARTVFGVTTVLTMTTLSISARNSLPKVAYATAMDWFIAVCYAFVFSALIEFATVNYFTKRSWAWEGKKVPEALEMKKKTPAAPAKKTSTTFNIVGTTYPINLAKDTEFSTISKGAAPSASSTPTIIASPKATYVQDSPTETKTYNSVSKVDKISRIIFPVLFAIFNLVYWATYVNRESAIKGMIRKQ
In words: Binding affinity to GABAA alpha3beta3gamma3 (unknown origin). In kind it is protein-complex assay.

The target of assay [11] is GABA-A receptor; alpha-1/beta-3/gamma-2 (Homo sapiens) (UniProt P14867+P18507+P28472). The assay is described as follows: Modulation of GABA-Aalpha1beta3gamma2 in Homo sapiens (human) L(tk-) cells relative to GABA.

Active and inactive are the calls of the source. The rule behind the calls is not given here.

For orientation: EC50 means the concentration giving half of the maximal effect. For orientation: Emax means the maximal effect, on the per cent scale that the assay sets. As usually defined, the Ki is the dissociation constant of the complex between target and ligand, obtained from inhibition or displacement.

In assay [1], `CC1(C)CC(=O)c2c(SCCO)sc(-c3nccs3)c2C1` registered an EC50 of 0.7 nM. The result (in [2]; in the assay on Rattus norvegicus [3]; in [9]) was Active. The Ratio Ki in the assay filed under Homo sapiens [4], in the assay listed under Homo sapiens [5] and in the assay listed under Homo sapiens [8] was 10 each time. Also, the Occ in the assay on Rattus norvegicus [6] worked out at 40%. Further, the Emax in assay [7] was -51%. Also, the Ki in assay [10] turned out to be 20 nM. Also, the Efficacy in assay [11] was -21%.

The values are drawn from ChEMBL document CHEMBL3046746, “Introduction to Receptors in Aging Diseases: GABA Receptors” (Med Chem Res, 2004).
